Measurements published in patent US8288559B2, “Luminogenic compounds and methods to detect cytochrome P450 3A enzymes” (Promega Corporation, priority 2008, dated 2012).

What was measured:
[1] = biological target: T1, CYP3A4 (Homo sapiens, UniProt P08684); conditions: non-acetal CYP3A4 substrates, Cali et al. 2006; cited from earlier work
[2] = biological target: T1, CYP3A4; assay: Two-step luminescent P450 assay with luciferin derivatives, recombinant enzyme panel screen; type: biochemical; set-up: purchased Discovery Labware (Supersomes™); host or cells: insect cell expression system; conditions: for signal/background (S/B) ratio: CYP3A4 vs minus P450 control, 50 μM substrate, 1 pmole P450, 30 minutes at 37° C. (FIG. 2)
Experimental: (§1) For assays using recombinant P450 enzymes, a two-step scheme was followed whereby a luciferin derivative is oxidized by a P450 enzyme in a first step. In the second step, LDR is added to the P450 reaction mixture to stop the P450 activity and initiate a glow-style luciferase reaction whereby the luminescent signal strength is dependent on the amount of luciferin derivative oxidized by a P450 enzyme in the first step.
(§2) Reaction buffers for the P450 enzyme reaction of the first step varied depending on the P450 enzyme used. […] Unless otherwise indicated, the following buffer/enzyme combinations were used: 100 mM KPO4, pH 7.4 for CYP1A1, 1A2, 1B1, 2D6, 2E1, 3A5, 3A7, 2J2, 4F12, 19, and control samples; 50 mM KPO4, pH 7.4 for CYP2B6, 2C8, 2C19, 4F2, 4F3A, 4F3B; 25 mM KPO4, pH 7.4 for CYP2C9; 200 mM KPO4, pH 7.4 for CYP3A4; 100 mM TrisHCl, pH 7.5 for CYP2A6, 2C18, 4A11.
(§3) In FIG. 2 and FIGS. 8-19, luciferin derivatives were screened against a panel of recombinant human cytochrome P450 enzyme and control microsomes (Supersomes™). Concentrated stock solutions of the proluciferin acetal compounds were prepared as follows: 50 mM 3320, 3357, 3364, 3366 and 3391 in acetonitrile; 50 mM 3359, 3365, 3397 and 3403 in dimethyl sulfoxide (DMSO); 50 mM 3377 in H2O; 10 mM 3363 in H2O. Luciferin-PPXE, luciferin-PFBE and luciferin-BE were provided as a 50 mM solution in DMSO, 2 mM solution in 25 mM Tris, pH 8 and a 5 mM solution in 100 mM KPO4, pH 7.4, respectively. Assays were performed in opaque, white, polystyrene, flat-bottom 96-well plates.
(§4) In FIG. 20 using compound 3391, the method used in FIGS. 2 and 8-19 was used with the following changes: 0.1 picomole of each P450 enzyme or an equivalent volume of control membranes was used per reaction; for all reactions, 2 μM compound 3391 was used, 100 mM KPO4, pH 7.4 was used as the P450 reaction buffer, and the reaction was incubated for 10 minutes at 37° C.
(§5) Briefly, in a first step a proluciferin acetal of the present invention is oxidized initially by a P450 enzyme. The oxidized product is then thought to undergo a non-enzymatic conversion to a proluciferin ester. In a second step, the proluciferin ester is detected by adding a luciferase reaction mixture containing an esterase enzyme that converts the proluciferin ester to luciferin. The luciferin reacts with luciferase to produce an amount of light that is proportional to the amount of luciferin, and therefore to the amount of P450 enzyme activity. A sample that contains active P450 enzyme is typically compared to a control that is devoid of P450 activity.

[3] = biological target: T1, CYP3A4
Experimental: In FIGS. 3-6, CYP3A4 enzyme was co-expressed with cytochrome b5 and cytochrome P450 reductase in membrane fractions (Supersomes™). […] The reactions were initiated by addition of the NADPH regenerating system and incubated for 10 minutes at 37° C. After incubation, an equal volume (50 μl) of LDR was added and luminescence read 20 minutes later at room temperature on a Veritas™ luminometer. […] IC50 is the concentration of inhibitor that causes 50% inhibition of the reaction. Curve fits and IC50 calculations were performed with the program GraphPad Prism™.

[4] = biological target: T1, CYP3A4; conditions: cited from earlier work
[5] = biological target: T2, CYP3A4 versus CYP3A5 (Homo sapiens, UniProt P20815); assay: Two-step luminescent P450 assay, recombinant enzyme panel screen; type: biochemical; conditions: human, recombinant human CYP3A4 and CYP3A5 microsomes (Supersomes), pH 7.4; FIG. 2 conditions: 50 μM compound, 1 pmole P450, 30 minutes; read-out: selectivity for CYP3A4 over CYP3A5
T2 construct: purchased Discovery Labware (Supersomes™); host or cells: insect cell expression system
Experimental: as §1, §2, §3, §4, §5

[6] = biological target: T3, CYP3A4 versus CYP3A7 (Homo sapiens, UniProt P24462); assay: as above; type: biochemical; conditions: human, recombinant human CYP3A4 and CYP3A7 microsomes (Supersomes), pH 7.4; FIG. 2 conditions: 50 μM compound, 1 pmole P450, 30 minutes; read-out: selectivity for CYP3A4 over CYP3A7
T3 construct: purchased Discovery Labware (Supersomes™); host or cells: insect cell expression system
Experimental: as §1, §2, §3, §4, §5

[7] = biological target: T4, CYP3A5 (Homo sapiens, UniProt P20815); assay: as above; type: biochemical; conditions: FIG. 20 conditions: 2 μM compound, 0.1 picomole P450, 100 mM KPO4 pH 7.4, 10 minutes at 37° C.
T4 construct: purchased Discovery Labware (Supersomes™); host or cells: insect cell expression system
Experimental: as §1, §2, §3, §4, §5

[8] = biological target: T5, CYP3A7 (Homo sapiens, UniProt P24462); assay: as above; type: biochemical; conditions: FIG. 20 conditions: 2 μM compound, 0.1 picomole P450, 100 mM KPO4 pH 7.4, 10 minutes at 37° C.
T5 construct: purchased Discovery Labware (Supersomes™); host or cells: insect cell expression system
Experimental: as §1, §2, §3, §4, §5

[9] = system: panel of 21 recombinant human cytochrome P450 enzymes; assay: as above; type: biochemical
Experimental: as §1, §2
In FIG. 2 and FIGS. 8-19, luciferin derivatives were screened against a panel of recombinant human cytochrome P450 enzyme and control microsomes (Supersomes™). […]
Briefly, in a first step a proluciferin acetal of the present invention is oxidized initially by a P450 enzyme. […] In a second step, the proluciferin ester is detected by adding a luciferase reaction mixture containing an esterase enzyme that converts the proluciferin ester to luciferin. […]

[10] = biological target: T1, CYP3A4; assay: Concentration dependence of the CYP3A4 reaction with compound 3391; type: biochemical; set-up: purchased Discovery Labware (Supersomes™); host or cells: insect cell expression system
Experimental: The reactions were performed as described for FIGS. 3-6 except no inhibitors were present in the reactions, and the concentration of compound 3391 varied as indicated in FIG. 7. Signals are expressed as net relative luminescent units (RLU) calculated by subtracting the background RLU values of control reaction mixtures that lack CYP3A4 enzyme from the RLU values of the CYP3A4 reactions. The curve fit was performed with the program GraphPad Prism™.
FIG. 7 illustrates the concentration dependence of the CYP3A4 reaction with compound 3391. […] The data fit well to a substrate inhibition model (R^2=0.99) described by the equation Y=(Vmax·X)/(Km+X+(X·X/Ki)), where X=substrate concentration, Y=activity in relative light units (RLU), Km=[…] and Ki=the substrate inhibition constant.

T1 sequence (P08684 whole entry): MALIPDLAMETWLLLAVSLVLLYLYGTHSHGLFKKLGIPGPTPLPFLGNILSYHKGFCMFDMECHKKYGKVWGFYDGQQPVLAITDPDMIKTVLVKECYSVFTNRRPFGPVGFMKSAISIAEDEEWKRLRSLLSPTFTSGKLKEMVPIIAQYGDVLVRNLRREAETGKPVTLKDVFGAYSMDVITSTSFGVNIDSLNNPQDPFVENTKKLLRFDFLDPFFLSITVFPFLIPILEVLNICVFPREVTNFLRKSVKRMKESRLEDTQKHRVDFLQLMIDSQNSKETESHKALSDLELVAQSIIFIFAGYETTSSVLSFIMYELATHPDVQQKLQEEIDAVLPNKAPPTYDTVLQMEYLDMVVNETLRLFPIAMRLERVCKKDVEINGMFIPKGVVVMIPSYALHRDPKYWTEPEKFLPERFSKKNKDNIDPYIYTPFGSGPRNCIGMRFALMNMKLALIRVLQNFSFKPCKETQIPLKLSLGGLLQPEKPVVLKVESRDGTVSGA
T2 sequence (P20815 whole entry): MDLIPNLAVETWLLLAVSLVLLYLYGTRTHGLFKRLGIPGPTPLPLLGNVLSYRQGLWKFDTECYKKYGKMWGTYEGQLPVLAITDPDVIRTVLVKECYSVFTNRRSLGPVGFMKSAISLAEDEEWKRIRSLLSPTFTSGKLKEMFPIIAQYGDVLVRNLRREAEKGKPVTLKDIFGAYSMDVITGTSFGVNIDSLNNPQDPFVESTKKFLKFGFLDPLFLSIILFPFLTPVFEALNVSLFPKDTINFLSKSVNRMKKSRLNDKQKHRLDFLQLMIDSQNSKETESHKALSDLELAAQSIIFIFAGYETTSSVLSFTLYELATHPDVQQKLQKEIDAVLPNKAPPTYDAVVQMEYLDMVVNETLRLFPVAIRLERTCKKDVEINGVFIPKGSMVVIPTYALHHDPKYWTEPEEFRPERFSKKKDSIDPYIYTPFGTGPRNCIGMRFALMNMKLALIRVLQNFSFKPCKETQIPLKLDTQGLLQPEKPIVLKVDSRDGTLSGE
T4 sequence (P20815 whole entry): as above
T5 sequence (P24462 whole entry): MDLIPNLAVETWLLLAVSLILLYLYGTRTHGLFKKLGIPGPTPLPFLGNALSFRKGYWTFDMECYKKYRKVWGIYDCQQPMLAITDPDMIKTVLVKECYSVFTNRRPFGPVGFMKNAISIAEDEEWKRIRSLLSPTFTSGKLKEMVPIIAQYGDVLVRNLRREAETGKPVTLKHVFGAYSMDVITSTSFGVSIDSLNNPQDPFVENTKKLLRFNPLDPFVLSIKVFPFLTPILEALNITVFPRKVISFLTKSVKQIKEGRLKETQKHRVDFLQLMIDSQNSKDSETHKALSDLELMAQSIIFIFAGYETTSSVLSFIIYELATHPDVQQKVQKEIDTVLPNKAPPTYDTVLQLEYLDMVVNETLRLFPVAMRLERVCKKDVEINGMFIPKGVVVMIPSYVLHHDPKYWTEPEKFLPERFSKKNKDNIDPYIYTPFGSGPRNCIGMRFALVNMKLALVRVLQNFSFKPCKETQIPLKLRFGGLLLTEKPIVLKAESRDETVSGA
T3 sequence (P24462 whole entry): as above

## O=C(O)[C@H]1CSC(c2nc3ccc(OCc4ccccc4)cc3s2)=N1 [luciferin-BE, (S)-2-(6-(benzyloxy)benzo[d]thiazol-2-yl)-4,5-dihydrothiazole-4-carboxylic acid, reference compound]
[1]
  Km: 50 µM
[2]
  signal/background (S/B) ratio: 55

## Cc1ncc2n1-c1ccc(Cl)cc1C(c1ccccc1F)=NC2 [midazolam]
[3]
  effect on the CYP3A4/3391 reaction: inhibited
[4]
  effect on CYP3A4 assay using luciferin-BE: inhibited
  effect on CYP3A4 assay using luciferin-PFBE: inhibited
  effect on CYP3A4 assay using luciferin-PPXE: inhibited

## O=C(O)[C@H]1CSC(c2nc3ccc(OCc4cccc(CN5CCN(c6ccccc6)CC5)c4)cc3s2)=N1 [luciferin-PPXE, (S)-2-(6-(3-((4-phenylpiperazin-1-yl)methyl)benzyloxy)benzo[d]thiazol-2-yl)-4,5-dihydrothiazole-4-carboxylic acid, reference compound]
[1]
  Km: 25 µM
[2]
  signal/background (S/B) ratio: 56

## CC(C)OC(OC(C)C)C1CSC(c2nc3ccc(O)cc3s2)=N1 (stereo not drawn) [compound 3391]
[5]
  selectivity ratio at 30 min, 50 μM: 1.4
[6]
  selectivity ratio at 30 min, 50 μM: 8.5
[7]
  preference for CYP3A4 over CYP3A5: 8.0 fold
[8]
  preference for CYP3A4 over CYP3A7: 48.5 fold
[9]; 50 μM, one picomole enzyme, 30 minutes at 37° C.
  selectivity/preference for the CYP3A subfamily (CYP3A4, CYP3A5, CYP3A7): excellent selectivity
[9]; FIG. 20 conditions: 2 μM compound, 0.1 picomole P450, 10 minutes
  activities with the other P450 enzymes screened: negligible
[2]; 0.1 picomoles of CYP3A4, 10 minute incubation, 2 μM
  fraction of compound oxidized during the incubation: less than 10%
[2]
  signal/background (S/B) ratio: 1699
[2]; FIG. 20 conditions
  time over which product accumulation with CYP3A4 is linear: at least 10 minutes
[10]; FIG. 7
  substrate concentration at maximal rate: 12.5 µM
[10]; substrate inhibition model fit, read-out: Ki (substrate inhibition constant)
  Ki: 171 µM

## O=C(O)[C@H]1CSC(c2nc3ccc(OC(F)(F)c4c(F)c(F)c(F)c(F)c4F)cc3s2)=N1 [luciferin-PFBE, (S)-2-(6-(perfluorobenzyloxy)-benzo[d]thiazol-2-yl)-4,5-dihydrothiazole-4-carboxylic acid, reference compound]
[1]
  Km: 50 µM
[2]
  signal/background (S/B) ratio: 92
